Test system: Jurkat cells
Test: SynFinger library screen: CD69 expression of CRASH-IT (Zap70-PD1-degron) transduced Jurkat cells with or without lenalidomide, enrichment index from NGS reads
Format: cell-based
Set-up: key to EI / EI index (enrichment index): enrichment index; low EI = SynFinger with desired properties
Details: Table 6; dual substitutions in first hybrid zinc finger domain; Jurkat, 50 nM lenalidomide vs mock, CD69-HI/CD69-LO; low EI = desired
Description: […] Jurkat cells were transduced with the SynFinger library (SynFinger containing CRASH-IT switches) at a 12.8% transduction efficiency and sorted for high EGFP expression to enrich transduced cells. For quality control of the SynFinger transduced Jurkat cells, SynFinger sequences were amplified and analyzed by NGS. 10 randomly selected SynFinger encoding DNA sequences or DNA sequences encoding the same SynFinger amino acid sequences but contain 2 nucleotide mismatches due to alternative codon usage were used to assess ability to distinguish true SynFinger sequences from noise in the NGS data. 10/10 SynFinger encoding full-nucleotide sequence match sequences were observed within NGS data whereas the 2 nucleotide mismatch containing sequences were not detected.
Jurkat cells expressing the SynFinger library were treated with 50 nM lenalidomide (a suboptimal dose that activates only ˜50% of cells expressing a CRASH-IT switch containing the parental double hybrid degron in Jurkat cells, as compared to a maximally effective 1000 nM lenalidomide dose) or were mock treated for 24 hours, and subsequently activated with anti-CD3/anti-CD28 antibodies in the presence or absence of 50 nM lenalidomide for 5 hours. Afterwards, cells were stained with IR dye (1:400) and anti-CD69-PE (1:200). Cells were sorted for live (IR dye negative), EGFP high end CD69 high (top 5%) or CD69 low (bottom 5%) expression using Aria Fusion cytometers.
Subsequently, cells were washed with PBS, and cell pellets were frozen at −20° C. until DNA extraction. Genomic DNA was isolated using the DNeasy Blood & Tissue Kit (Qiagen) according to the manufacturer's instructions, using 5×10^6 cells per column. DNA was eluted in 22 μl RNAse free water. Deep sequencing adapters and indexes were added to SynFinger encoding DNA sequences using PCR amplification. Briefly, 3 μg genomic DNA (20 μl), indexed forward and reverse primers (10 μM, 2.5 μl each) and 25 μl NEBNext® High-Fidelity 2×PCR Master Mix were added to the PCR reaction. An optimized PCR reaction (98° C. for 30 s, (98° C. for 10 s, 56° C. for 10 s, 72° C. for 5 s)×25 cycles, 72° C. for 3 min was performed using Eppendorf PCR cyclers.
Indexed PCR products were run on agarose gel, relative DNA concentrations were estimated by measuring band intensity, and 12 indexed PCR reaction products were mixed per MiSeq chip. To increase sequence diversity, samples were mixed with 25% PhiX DNA. In total, 2 MiSeq chips were used (100 bp, single read). To distinguish genuine SynFinger sequences from sequencing errors, results were filtered using a reference list of actual sequences used in SynFinger library design (100% codon match). Sequences with a very low number of reads (sum of all samples below 500 reads) were excluded from analysis.
To identify SynFingers that improve sensitivity of CRASH-IT switches towards lenalidomide while preserving or improving stringency of switch mediated control of T cell activation in the absence of lenalidomide, an enrichment index (EI) value was calculated for each sequence as described below, and SynFingers were ranked according to their EI, with a low EI indicating a SynFinger with desired properties.
CD69-HI and […] read counts from top 100 SynFingers were compared with read counts from the parental double hybrid degron using a two-sided Fisher's exact test to determine enrichment of CD69-HI cells in the presence of lenalidomide and enrichment of CD69-LO cells in the absence of lenalidomide.
To further improve the sensitivity of double hybrid degron towards IMiDs, we performed a high throughput screen using a library of ˜50,200 CRASH-IT variants that encode either single or double amino acid substitutions at the indicated positions of the first hybrid zinc finger sequence, thereby changing 18 amino acids of this zinc finger into any amino acid except cysteine (FIG. 3). […]

| Substance | EI index (enrichment index) |
| --- | --- |
| 1 (LQCRICGFTCRLKGNLLRHIKLH) [compound 1] | 0 |
| 2 (LQCEICGFTCRRTGNLLRHIKLH) [compound 2] | 0.002912 |
| 3 (LQCEICGFTCRRKGNLMRHIKLH) [compound 3] | 0.003725 |
| 4 (LQCEICGFTCRQKMRLLRHIKLH) [compound 4] | 0.00411 |
| 5 (LQCEICGFTCRQVKNLLRHIKLH) [compound 5] | 0.004648 |
| 6 (LQCEICGFTCRQKNNLLRHIALH) [compound 6] | 0.004719 |
| 7 (LQCEICGFTCRQKNNLLRHIKRH) [compound 7] | 0.004969 |
| 8 (LQCEICGFTCRQLGNLLWHIKLH) [compound 8] | 0.006187 |
| 9 (LQCEICGFTCRRVGNLLRHIKLH) [compound 9] | 0.006877 |
| 10 (LQCWICGFTCRQKGNLLRHIYLH) [compound 10] | 0.00695 |
| 11 (LQCPICGFTCRQKSNLLRHIKLH) [compound 11] | 0.008068 |
| 12 (IQCEACGFTCRQKGNLLRHIKLH) [compound 12] | 0.008564 |
| 13 (LQCEICGFTCRQKGNMLRHIRLH) [compound 13] | 0.008761 |
| 14 (LQCEICGFTCRQKGNLIRHILLH) [compound 14] | 0.009984 |
| 15 (LQCLICGFTCRRKGNLLRHIKLH) [compound 15] | 0.01014 |
| 16 (LQCEICGFTCRRKGNLYRHIKLH) [compound 16] | 0.0107 |
| 17 (LQCIICGFTCRQKGNLLKHIKLH) [compound 17] | 0.0108 |
| 18 (LQCAICGFTSRQKGNLLRHIKLH) [compound 18] | 0.01133 |
| 19 (LQCEICGFTCRLKGNLLRHILLH) [compound 19] | 0.01177 |
| 20 (LQCKICGFTCRVKGNLLRHIKLH) [compound 20] | 0.01216 |
| 21 (LQCEICGFSCRQKGNLRRHIKLH) [compound 21] | 0.01255 |
| 22 (LQCKICGFTSRQKGNLLRHIKLH) [compound 22] | 0.01311 |

| Substance | EI index (enrichment index) |
| --- | --- |
| 23 (LQCEICGFTCRKKGALLRHIKLH) [compound 23] | 0.0133 |
| 24 (LQCEICGFTCRQKHNLLRHIKNH) [compound 24] | 0.01351 |
| 25 (LQCKICGFTCRQMGNLLRHIKLH) [compound 25] | 0.01383 |
| 26 (FQCEICGFTCRQKVNLLRHIKLH) [compound 26] | 0.01478 |
| 27 (LQCEICGFTCVQKGNLLRHIALH) [compound 27] | 0.01487 |
| 28 (LQCEICGFTCRRKGNLLRHIKHH) [compound 28] | 0.01589 |
| 29 (LQCEICGFTCRQVGWLLRHIKLH) [compound 29] | 0.01609 |
| 30 (LQCMICGFTFRQKGNLLRHIKLH) [compound 30] | 0.01673 |
| 31 (LQCEICGFTCRQKTRLLRHIKLH) [compound 31] | 0.01686 |
| 32 (LQCEICGFTCRQEKNLLRHIKLH) [compound 32] | 0.01693 |
| 33 (LQCDICGFTCRQKGNLLLHIKLH) [compound 33] | 0.01705 |
| 34 (LQCEICGFTCRQKYNLLRHISLH) [compound 34] | 0.01723 |
| 35 (LQCEICGFTARRKGNLLRHIKLH) [compound 35] | 0.01754 |
| 36 (YQCVICGFTCRQKGNLLRHIKLH) [compound 36] | 0.01769 |
| 37 (FQCEICGFTCRQKHNLLRHIKLH) [compound 37] | 0.01787 |
| 38 (LQCEICGYTCRKKGNLLRHIKLH) [compound 38] | 0.01794 |
| 39 (LQCEICGFTCRQKGRLLRHIKQH) [compound 39] | 0.01901 |
| 40 (LQCEICGFTCKQKKNLLRHIKLH) [compound 40] | 0.01915 |
| 41 (LQCEVCGFTCRKKGNLLRHIKLH) [compound 41] | 0.01944 |
| 42 (LQCEICGFTCRRKGNLLRHRKLH) [compound 42] | 0.01965 |
| 43 (FQCEICGFTCRQKGRLLRHIKLH) [compound 43] | 0.01977 |
| 44 (LQCEICGFTCRQKANLKRHIKLH) [compound 44] | 0.02064 |

| Substance | EI index (enrichment index) |
| --- | --- |
| 45 (LQCIICGFTCRQKGNLWRHIKLH) [compound 45] | 0.0209 |
| 46 (LQCEICGFTCRQKGNLYRHYKLH) [compound 46] | 0.021 |
| 47 (LQCEICGFTCRQKGTLLRHIKRH) [compound 47] | 0.02209 |
| 48 (LQCEICGFTCRKKGNLLRHKKLH) [compound 48] | 0.02219 |
| 49 (LQCEICGFTCRRKGSLLRHIKLH) [compound 49] | 0.02268 |
| 50 (LQCEICGFTCRNKKNLLRHIKLH) [compound 50] | 0.02307 |
| 51 (LQCEICGFTCRQKKNLLRHISLH) [compound 51] | 0.02309 |
| 52 (FQCEICGFTCRQKRNLLRHIKLH) [compound 52] | 0.0231 |
| 53 (LQCEICGFTCRQKGNLLRHYKTH) [compound 53] | 0.02363 |
| 54 (LQCEICGFTCRQKGNLLVHIALH) [compound 54] | 0.02408 |
| 55 (LQCEICGFTCRQKFKLLRHIKLH) [compound 55] | 0.0247 |
| 56 (LQCKICGFTCRHKGNLLRHIKLH) [compound 56] | 0.02543 |
| 57 (LQCEICGFTCRQKMNLVRHIKLH) [compound 57] | 0.02583 |
| 58 (LQCRICGFTCRQKGNMLRHIKLH) [compound 58] | 0.02584 |
| 59 (LQCEICGFTCRLKGNLLLHIKLH) [compound 59] | 0.02682 |
| 60 (LQCEICGFTCRQWGNYLRHIKLH) [compound 60] | 0.02739 |
| 61 (WQCEICGFTCRQYGNLLRHIKLH) [compound 61] | 0.0276 |
| 62 (LQCEICGFTCRQPGNLLRHIKRH) [compound 62] | 0.02767 |
| 63 (LQCWICGFTCRRKGNLLRHIKLH) [compound 63] | 0.02829 |
| 64 (LQCEICGFTCRQKGNLHLHIKLH) [compound 64] | 0.02947 |
| 65 (LQCEICGFTCRQKGNLLRHIFKH) [compound 65] | 0.02989 |
| 66 (LQCVICGFTCRQKGNLVRHIKLH) [compound 66] | 0.02989 |

From patent publication US20250206789A1, “ZINC FINGER DEGRON SEQUENCES” (STICHTING HET NEDERLANDS KANKER INSTITUUT-ANTONI VAN …, priority 2022, published 2025)
